Consider three molecules from US20150230462A1, “METHODS FOR IMPROVING GERMINATION AND STRESS TOLERANCE CHARACTERISTICS WITH JASMONATES” (New Biology, Inc., priority 2014, published 2015).

“Also recorded” adds a separate entry of the source.

The subject of assay [1] is non-germinated seeds and resulting plants. As to conditions: U.S. Pat. No. 8,115,053 to Roberts et al.; treating non-germinated seeds; cited from earlier work.
The test system of another assay is seed germination. The following applies: Norastehnia et al., Gen. Appl. Plant Physiology, 2007; cited from earlier work.
In assay [2] the test system is Seeds of tomato (‘Crimson Carmello’). Briefly: Germinating tomato seeds soaked 1 hour in MDHJ: percent germination, radicle length (Example 26). Format: in vivo. As to conditions: for Percent of Tomato Seeds Germinated, Day 5 / Percent of Tomato Seeds Germinated, Day 7: 1 hour soak of germinating seeds. Here is the method: Seeds of tomato (‘Crimson Carmello’) were soaked in water for 24 hours. After 24 hours, seeds were transferred to a solution containing water only (untreated control or UTC), 0.05 mM MDHJ, or 0.5 mM MDHJ in water. There were 8-9 seeds per treatment. After soaking for 1 hour, the seeds were rinsed in water and placed between two layers of water-moistened paper towel in a clear plastic covered tray. The trays were placed at room temperature with normal daylight conditions and allowed to germinate. At day 5 and 7, the percent of germinated seeds was obtained. At days 5 and 7, radicle length was measured in tomato seedlings (no coleoptiles were showing yet). At Day 5 and 7, radicle length was measured in millimeters.

Assay [3] has as its system Seeds of corn (‘Sugar Pearl’). Description: Planted germinating corn seeds, soil sprayed with MDHJ: seedling emergence and plant height (Example 29). In kind it is in vivo. The following applies: for Percent Seedling Emergence: 12.5 ml/pot sprayed on soil two days after planting, 21 days after planting, n=16. On the procedure: Seeds of corn (‘Sugar Pearl’) were soaked in water for 48 hours and subsequently planted 1-inch deep in potting soil in 6-inch pots. Two days after planting, the soil was sprayed with 12.5 ml/pot of 0 mM (UTC), 0.75 mM or 7.5 mM MDHJ. There were 8 seeds planted per pot and two pots for each treatment (n=16). Germination was recorded 21 days after planting, and plant height measured 24 days after planting.

In assay [4] the test system is Seeds of wheat (Triticum aestivum ‘Liquid Sunshine’). Description: Germinating wheat seeds soaked 1 hour in MDHJ: percent germination, coleoptile length (Example 27). In kind it is in vivo. The following applies: for Percent of Wheat Seeds Germinated at Day 7: 1 hour soak after 24 hours in water. Here is the method: Seeds of wheat (Triticum aestivum ‘Liquid Sunshine’) were soaked in water for 24 hours. After 24 hours, seeds were transferred to a solution containing water only (untreated control or UTC), 0.05 mM MDHJ, 0.5 mM MDHJ, or 5.0 mM MDHJ in water. There were 16-20 seeds per treatment. After soaking for 1 hour, the seeds were rinsed in water and placed between two layers of water-moistened paper towel in a clear plastic covered tray. The trays were placed at room temperature with normal daylight conditions and allowed to germinate. At day 7, the percent of germinated seeds was obtained and coleoptile length was measured.

Assay [5] concerns plants. The following applies: U.S. Pat. Nos. 8,013,226 and 8,563,839; cited from earlier work.
Another assay relates to Sugar snap pea seeds. Description: Sugar snap pea seeds treated with MDHJ soak solutions with wetting agent: seeds germinated (Example 3). In kind it is in vivo. On the procedure:
Non-germinated seeds of the hybrid corn varietal “Early Sun Glow” were treated with MDHJ by soaking for 24 hours in 50 mL conical vessels in one of four treatment solutions. During the soak, the seeds spent 12 hours in typical lighting conditions and 12 hours in darkness. The four treatment solutions are set forth below in Table 5. In Table 5, COCO-WET® is a wetting agent sold by Spray-N-Grow, Inc. of Rockport, Tex. On Day 2, 4 2-inch pots were planted with three seeds each, for a total of 12 seeds per treatment. Germination of the potted seeds was measured at days 8 and 15. Sugar snap pea seeds were treated according to the procedure in Example 2. The number of seeds germinated were counted at days 8 and 15 after treatment.

The subject of assay [6] is wheat (Triticum aestivum ‘Liquid Sunshine’) seeds. Description: Germinating wheat seeds (48 hours water soak) soaked 1 hour in MDHJ: germination at Day 6 (Example 28). The following applies: for Percent of Seeds Germinated at Day 6, Wheat: 1 hour soak after 48 hours in water. In kind it is in vivo. On the procedure: (§1) Seeds of wheat (Triticum aestivum ‘Liquid Sunshine’), corn (‘Sugar Pearl’) and swiss chard (‘Peppermint Stick’) were soaked in water for 48 hours, immediately followed by a 1 hour soak in no MDHJ (untreated control, or UTC), 1.5 mM MDHJ or 7.5 mM MDHJ. Seeds were then rinsed and placed between sheets of moistened paper towel and surrounded by a saran wrap tent to keep the germinating environment moist. There were 13-25 seeds for each treatment of each plant. At Day 6, seed germination was measured for each plant.

In assay [7] the test system is Seeds of Redina lettuce (Lechuga redina). Briefly: Redina lettuce seeds treated with MDHJ soak solutions with wetting agent (Example 4). Format: in vivo. Here is the method:
Non-germinated seeds of the hybrid corn varietal “Early Sun Glow” were treated with MDHJ by soaking for 24 hours in 50 mL conical vessels in one of four treatment solutions. During the soak, the seeds spent 12 hours in typical lighting conditions and 12 hours in darkness. The four treatment solutions are set forth below in Table 5. In Table 5, COCO-WET® is a wetting agent sold by Spray-N-Grow, Inc. of Rockport, Tex.
Seeds of Redina lettuce (Lechuga redina) were treated with MDHJ according to the protocol of Example 2.

Assay [8] relates to plants. The following applies: U.S. Patent Application Publication No. 2009/0082453; cited from earlier work.
In assay [9] the test system is swiss chard (‘Peppermint Stick’) seeds. Briefly: Germinating swiss chard seeds (48 hours water soak) soaked 1 hour in MDHJ: germination at Day 6 (Example 28). Format: in vivo. As to conditions: for Percent of Seeds Germinated at Day 6, Swiss Chard: 1 hour soak after 48 hours in water. On the procedure: as §1
Assay [10] deals with corn (‘Sugar Pearl’) seeds. Briefly: Germinating corn seeds (48 hours water soak) soaked 1 hour in MDHJ: germination at Day 6 (Example 28). In kind it is in vivo. The following applies: for Percent of Seeds Germinated at Day 6, Corn: 1 hour soak after 48 hours in water. On the procedure:
as §1

The subject of assay [11] is plants. The following applies: U.S. Patent Application Publication No. 2009/0133166; cited from earlier work.

As to `CC/C=C\CC1C(=O)CCC1CC(=O)O` (centres unmarked) [jasmonic acid, 2-(3-oxo-2-(pent-2-enyl)cyclopentyl)acetic acid], the “pest resistance in the resulting plants” value in assay [1] was “increases pest resistance in the resulting plants up to 10 weeks after sowing”.

`CC/C=C\CC1C(=O)CCC1CC(=O)OC` (centres unmarked) [methyl jasmonate]: in assay [1], the “pest resistance in the resulting plants” value is “increases pest resistance in the resulting plants up to 10 weeks after sowing”. Moreover, in the assay with seed germination, the “seed germination” value is recorded as “inhibits seed germination”.

In the case of `CCCCCC1C(=O)CCC1CC(=O)OC` (centres unmarked) [MDHJ, methyl dihydrojasmonate], the “Percent of Tomato Seeds Germinated, Day 5” value in [2] (0.05 mM MDHJ) came out at 87.5%; in [2] (0.50 mM MDHJ) it was 100%. Also, the “Percent of Tomato Seeds Germinated, Day 7” value in assay [2] (0.05 mM MDHJ) and in [2] (0.50 mM MDHJ) was 100% in each case. For the same molecule, in assay [2] (0.5 mM MDHJ), the “Seed germination percentage” value is “enhanced”. The “radicle length compared to untreated seeds” value in [2] (0.5 mM MDHJ, by day 7, FIG. 4) is listed as “increase in radicle length compared to untreated seeds”. Besides, the “Percent Seedling Emergence” value was found to be 63% in assay [3] (0.75 mM MDHJ) and 50% in assay [3] (7.50 mM MDHJ). In addition, the “germination compared to the untreated control” value in assay [3] (0.75 mM-treated seed) was “increased germination”; in [3] (7.5 mM treated seed) it was “no germination inhibition”. In addition, in assay [3] (FIG. 6, 24 days after planting, 0.75 mM or 7.5 mM), the “growth (plant height, words)” value was “did not inhibit growth”. Moreover, the “seed germination percentage compared to the untreated control” value in assay [4] (0.05 mM MDHJ) was “increased seed germination percentage”. Further, the “Percent of Wheat Seeds Germinated at Day 7” value was found to be 95% in assay [4] (0.05 mM MDHJ), 53% in [4] (0.50 mM MDHJ) and 55% in assay [4] (5.00 mM MDHJ). Moreover, the “coleoptile length” value in assay [4] (0.05 mM MDHJ, FIG. 5) was “no decrease in coleoptile length”. In addition, the “germination and coleoptile growth” value in [4] (0.5 mM and above, FIG. 5) is “inhibition of germination and coleoptile growth”. Further, the “coleoptiles and radicles” value in [4] (5.0 mM treatment) is “too short to measure”. Moreover, the “rate of seed germination in wheat” value in assay [4] (concentrations below 0.5 mM, germinating wheat in paper towel) is on record as “beneficial for improved rate of seed germination”. Besides, in the assay on plants [5], the “chlorosis and necrosis of leaf senescence” value is “can reduce the chlorosis and necrosis of leaf senescence”. Also, the “adverse effect on germination” value with Sugar snap pea seeds (MDHJ concentrations under 1.5 mM) is “not to adversely affect germination”. The “germination benefit from MDHJ exposure” value (in the assay on Sugar snap pea seeds (in vivo); in assay [7] (in vivo)) was “no germination benefit was seen” in each case. Further, the “Percent of Seeds Germinated at Day 6, Wheat” value in assay [6] (1.5 mM MDHJ) and in [6] (7.5 mM MDHJ) was 100% each time. Besides, in assay [6] (1.5 mM and 7.5 mM MDHJ), the “General Observation, Wheat” value was “seedlings were stunted”. The “adverse effects on germination” value in assay [7] (15 days after treatment, MDHJ at concentrations below 1.5 mM) is recorded as “no adverse effects on germination; also recorded: not to adversely affect germination”. In the assay on plants [8], the “biotic attack” value is “effective in reducing biotic attack and disease in plants; also recorded: surprisingly effective at preventing biotic attack”. Besides, the “germination” value in assay [9] (1.5 mM MDHJ) and in [10] (1.5 mM MDHJ) was “improved” in each case. Also, the figures for the “Percent of Seeds Germinated at Day 6, Swiss Chard” value in [9] (1.5 mM MDHJ) and in assay [9] (7.5 mM MDHJ) were 77% and 58%, respectively. The “Percent of Seeds Germinated at Day 6, Corn” value was 54% in [10] (1.5 mM MDHJ) and 0.1% in assay [10] (7.5 mM MDHJ). Also, the “flowering characteristics” value in the assay on plants [11] is “improves flowering characteristics”.
